Values of other authors as cited in patent US11980624B2, “Methods for administering compositions comprising hydroxytyrosol and boswellic acid” (Nutramax Laboratories, Inc., priority 2016, dated 2024).

Conditions: single oral 2.5 mg/kg dose, human subjects

peak plasma concentration: 1.11 ± 0.20 µmol/L
SMILES: OCCc1ccc(O)c(O)c1 [hydroxytyrosol, 4-(2-Hydroxyethyl)-1,2-benzenediol]
